Tests used:
[1] = tested on: STHdh^Q111/111 cells; experiment: Toxicity assay: rescue from tunicamycin (ER stress)-induced apoptosis, FACS with propidium iodide (sub-G0/G1); format: cell-based, murine; settings: for rescue from ER stress-induced apoptosis: 0–100 μM, 48 h Tun exposure (Fig. 1C)
Protocol: (§1) STHdh^Q111/111 cells (used before[13]) or PERK+/+ or PERK−/− MEFs (kindly provided by David Ron, Univ. Cambridge) were incubated with Tun (10 μg/ml) for 48 h, which results in ER stress-induced cell death. Cells under the same conditions were incubated for the same times, together with Tun, with increasing concentrations of the different PERK modulators (0–120 μM) and the percent of apoptotic cells was measured by FACS cell cycle progression using propidium iodide (PI), considering the fraction beneath G0/G1. The relative apoptosis rate was calculated to be able to compare between compounds and experiments, where for each concentration curve the percent of apoptotic cells was considered 100 at concentration 0 of the PERK modulator, with only Tun. The graphs show the average relative apoptosis rate of at least 3 independent experiments for each compound.
(§2) Cells were washed with PBS and fixed with cold methanol. Before FACS analysis cells were washed with PBS, followed by addition of propidium iodide (PI) solution (10 μg/ml) and analysis by flow cytometry. Cells in sub-G0/G1 were counted as apoptotic/ dead.

[2] = molecular target: T1, PERK (EIF2AK3) (Homo sapiens, UniProt Q9NZJ5); experiment: In vitro HotSpot kinase assay on isolated PERK; format: biochemical; settings: HotSpot Kinase Assay
T1 construct: GST; purchased Life technologies, Carlsbad, CA; host or cells: insect cells
T1 sequence (Q9NZJ5 536-1116): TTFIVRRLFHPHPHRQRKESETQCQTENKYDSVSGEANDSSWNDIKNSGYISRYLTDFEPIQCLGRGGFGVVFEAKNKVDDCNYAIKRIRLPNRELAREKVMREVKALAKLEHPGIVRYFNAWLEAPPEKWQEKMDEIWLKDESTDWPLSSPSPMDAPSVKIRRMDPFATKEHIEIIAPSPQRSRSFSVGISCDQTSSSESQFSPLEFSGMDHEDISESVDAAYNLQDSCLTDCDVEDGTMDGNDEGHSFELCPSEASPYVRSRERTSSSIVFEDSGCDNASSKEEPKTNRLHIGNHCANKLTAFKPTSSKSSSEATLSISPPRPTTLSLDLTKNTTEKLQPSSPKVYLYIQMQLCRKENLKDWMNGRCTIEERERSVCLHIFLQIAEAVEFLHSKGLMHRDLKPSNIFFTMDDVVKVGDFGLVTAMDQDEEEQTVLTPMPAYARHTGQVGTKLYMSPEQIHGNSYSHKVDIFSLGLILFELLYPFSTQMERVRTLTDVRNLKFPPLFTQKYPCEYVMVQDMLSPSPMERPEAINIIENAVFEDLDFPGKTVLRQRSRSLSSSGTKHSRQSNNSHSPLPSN
Protocol: In vitro kinase assays with purified components and full kinase panel analysis was done at Reaction Biology Corp. (Malvern, PA, USA) using the HotSpot Kinase Assay. Reactions were performed for 20 min at room temp. using ^33P-ATP (Specific activity 10 μCi/μl) with 1 μM total ATP, 20 μM substrate and kinases in the nanomolar range in 20 mM Hepes (pH 7.5), 10 mM MgCl2, 1 mM EGTA, 0.02% Brij35, 0.02 mg/ml BSA, 0.1 mM Na3VO4, 2 mM DTT, 1% DMSO and other required factors depending on the assayed kinase.

[3] = tested on: WT MEF cells; experiment: Rescue from tunicamycin-induced apoptosis in WT MEFs; format: cell-based; settings: WT MEFs treated with Tun; read-out: IC50 for inhibition of apoptosis
Protocol: as §1, §2

[4] = tested on: PERK−/− MEF cells; experiment: Rescue from tunicamycin-induced apoptosis in PERK−/− MEFs; format: cell-based; settings: Tun
Protocol: as §1, §2

[5] = molecular target: panel of 391 kinases (Homo sapiens, UniProt Q9BQI3); experiment: biochemical; format: biochemical; settings: kinase EIF2AK1; 10-dose IC50 mode; 1 µM ATP; read-out: Control Compound IC50
[6] = molecular target: T2, panel of 391 kinases (Homo sapiens, UniProt P10398); experiment: biochemical; format: biochemical; settings: ARAF; ATP 1 µM; read-out: Control Compound IC50
T2 sequence (P10398 1-606): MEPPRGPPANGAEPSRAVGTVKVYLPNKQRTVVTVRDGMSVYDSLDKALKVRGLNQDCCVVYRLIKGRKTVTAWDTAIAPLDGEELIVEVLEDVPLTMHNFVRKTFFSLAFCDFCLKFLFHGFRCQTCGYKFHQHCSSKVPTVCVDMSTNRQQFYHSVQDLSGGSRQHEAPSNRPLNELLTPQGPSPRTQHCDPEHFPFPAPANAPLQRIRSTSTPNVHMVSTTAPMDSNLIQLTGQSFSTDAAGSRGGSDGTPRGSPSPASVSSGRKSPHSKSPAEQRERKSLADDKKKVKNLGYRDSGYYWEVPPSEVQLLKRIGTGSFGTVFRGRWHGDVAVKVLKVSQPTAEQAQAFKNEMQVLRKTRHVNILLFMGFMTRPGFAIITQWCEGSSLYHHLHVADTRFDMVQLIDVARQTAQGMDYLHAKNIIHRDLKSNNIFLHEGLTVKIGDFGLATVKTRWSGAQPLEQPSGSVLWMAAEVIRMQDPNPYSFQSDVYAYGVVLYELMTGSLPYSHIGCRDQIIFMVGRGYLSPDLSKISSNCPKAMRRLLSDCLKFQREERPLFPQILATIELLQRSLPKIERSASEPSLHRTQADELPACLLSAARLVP

[7] = molecular target: panel of 391 kinases (Homo sapiens, UniProt P68400); experiment: biochemical; format: biochemical; settings: CK2a; ATP 1 µM; read-out: Control Compound IC50
[8] = molecular target: panel of 391 kinases (Homo sapiens, UniProt Q15118); experiment: biochemical; format: biochemical; settings: kinase PDK1/PDHK1; 10-dose IC50 mode; 1 µM ATP; read-out: Control Compound IC50
[9] = molecular target: panel of 391 kinases (Homo sapiens, UniProt Q15119); experiment: biochemical; format: biochemical; settings: kinase PDK2/PDHK2; 10-dose IC50 mode; 1 µM ATP; read-out: Control Compound IC50
[10] = molecular target: panel of 391 kinases (Homo sapiens, UniProt Q15120); experiment: biochemical; format: biochemical; settings: kinase PDK3/PDHK3; 10-dose IC50 mode; 1 µM ATP; read-out: Control Compound IC50
[11] = molecular target: panel of 391 kinases (Homo sapiens, UniProt Q16654); experiment: biochemical; format: biochemical; settings: kinase PDK4/PDKH4; 10-dose IC50 mode; 1 µM ATP; read-out: Control Compound IC50
[12] = molecular target: T3, panel of 391 kinases (Homo sapiens, UniProt Q9NR20); experiment: biochemical; format: biochemical; settings: DYRK4; ATP 1 µM; read-out: Control Compound IC50
T3 sequence (Q9NR20 1-520): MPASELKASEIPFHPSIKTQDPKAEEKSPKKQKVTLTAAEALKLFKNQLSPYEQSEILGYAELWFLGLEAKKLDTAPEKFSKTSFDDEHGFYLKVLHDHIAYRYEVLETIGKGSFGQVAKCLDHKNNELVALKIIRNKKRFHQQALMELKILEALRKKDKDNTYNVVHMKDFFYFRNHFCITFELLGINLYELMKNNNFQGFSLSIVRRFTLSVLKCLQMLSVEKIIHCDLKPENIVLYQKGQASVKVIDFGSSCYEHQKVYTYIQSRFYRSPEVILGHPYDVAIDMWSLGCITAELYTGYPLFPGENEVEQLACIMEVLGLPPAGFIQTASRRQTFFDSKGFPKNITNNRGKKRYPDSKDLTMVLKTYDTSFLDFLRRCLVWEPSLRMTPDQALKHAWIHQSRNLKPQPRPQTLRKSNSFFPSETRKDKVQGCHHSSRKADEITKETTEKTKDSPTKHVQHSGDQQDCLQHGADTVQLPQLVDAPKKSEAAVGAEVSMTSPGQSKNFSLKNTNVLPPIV

[13] = molecular target: panel of 391 kinases (Homo sapiens, UniProt Q9NYL2); experiment: biochemical; format: biochemical; settings: ZAK/MLTK; ATP 1 µM; read-out: Control Compound IC50
[14] = molecular target: panel of 391 kinases (Homo sapiens, UniProt Q9Y572); experiment: biochemical; format: biochemical; settings: RIPK3; ATP 1 µM; read-out: Control Compound IC50
[15] = molecular target: panel of 391 kinases (Homo sapiens, UniProt P37173); experiment: biochemical; format: biochemical; settings: TGFBR2; ATP 1 µM; read-out: Control Compound IC50
[16] = tested on: STHdh^Q111/111 cells; experiment: Apoptosis of STHdh^Q111/111 cells with the NRF2 inhibitor ML385; format: cell-based, murine
Protocol: as §1
Suppl. Fig. S5. NRF2 activation but not involvement in cell protection by MK-28. A)
Scheme of NRF2 activation by PERK. B) qPCR of HMOX1, a downstream target of NR F2.
Medians +- interquartile range of 3 independent experiments . P values of STHdhQ7/7 MK 5µM […]
presence of Tun and the indicated concentrations of MK-28, plus increasing concentrations of the NRF2 inhibitor ML385. Average of 3 independent experiments +-SD. D) Apoptosis of STHdhQ111/111 cells treated only with increasing concentrations of ML385. […]

[17] = molecular target: panel of 391 kinases (Homo sapiens, UniProt Q96QT4); experiment: biochemical; format: biochemical; settings: kinase TRPM7/CHAK1; 10-dose IC50 mode; 1 µM ATP; read-out: Control Compound IC50
[18] = molecular target: panel of 391 kinases (Homo sapiens, UniProt Q8TDX7); experiment: biochemical; format: biochemical; settings: NEK7; ATP 1 µM; read-out: Control Compound IC50
[19] = molecular target: panel of 391 kinases (Homo sapiens, UniProt Q9HC98); experiment: biochemical; format: biochemical; settings: NEK6; ATP 1 µM; read-out: Control Compound IC50
[20] = molecular target: panel of 391 kinases (Homo sapiens, UniProt P27361); experiment: biochemical; format: biochemical; settings: ERK1; ATP 1 µM; read-out: Control Compound IC50
[21] = tested on: PERK-P; experiment: PERK phosphorylation shift by immunoblot in MEF cells; format: cell-based; settings: 3 hours, Thap 2 μg/ml
[22] = molecular target: panel of 391 kinases (Homo sapiens, UniProt Q9BYP7); experiment: biochemical; format: biochemical; settings: WNK3; ATP 1 µM; read-out: Control Compound IC50

COc1cc(/C=N\N(C)c2nc(-c3ccccc3)cc(-c3ccc(Br)cc3)n2)ccc1O [A4, reference compound]
reduction of apoptosis ([1]; 5 μM, 48 h Tun exposure): no significant effect | effect on activity of isolated PERK [2]: activated PERK (EIF2AK3) in the nanomolar range, although to a small extent

CCN(CC)CCC(=O)N1N=C(c2c(-c3ccccc3)c3cc(Br)ccc3[nH]c2=O)CC1c1ccc(Br)cc1 (centres unmarked) [CCT020312, reference compound]
IC50 ([1]; STHdh^Q111/111 cells treated with Tun, read-out: IC50 for inhibition of apoptosis): 32400 nM | protection from apoptosis at lower concentrations ([1]; below 10 μM, Tun): failed to be protective | IC50 [3]: 11100 nM | protection from ER stress-induced cell death [4]: failed to protect

Cn1cc(-c2ccc3c(c2)CCN3C(=O)Cc2cccc(C(F)(F)F)c2)c2c(N)ncnc21 [GSK606414, 7-methyl-5-(1-{[3-(trifluoromethyl)phenyl]acetyl}-2,3-dihydro-1H-indol-5-yl)-7H-p yrrolo[2,3-d]pyrimidin-4-amine]
effect on activity of isolated PERK [2]: clear inhibitory effect

Cn1cc(-c2ccc3c(c2)CCN3C(=O)Cc2cccc(C(F)(F)F)c2)c2c(N)ncnc21 [GSK-2606414]
IC50 [5]: 166 nM

O=C1Nc2ccc(I)cc2/C1=C/c1cc(Br)c(O)c(Br)c1 [GW5074]
IC50 [6]: 29.3 nM | IC50 [7]: 35 nM | IC50 [8]: 10300 nM | IC50 [9]: 5520 nM | IC50 [10]: 1890 nM | IC50 [11]: 1680 nM | IC50 [12]: 1140 nM | IC50 [13]: 1340 nM | IC50 [14]: 1140 nM

c1ccc2c(-c3cnn4cc(-c5ccc(N6CCNCC6)cc5)cnc34)ccnc2c1 [LDN193189]
IC50 [15]: 89.6 nM

COc1cc(/C=N\N(C)c2nc(-c3ccccc3)cc(-c3ccccc3)n2)cc(OC)c1 [MK26]
rescue from ER stress-induced apoptosis [1]: inactive

COc1ccc(/C=N\N(C)c2nc(-c3ccccc3)cc(-c3ccccc3)n2)cc1O [MK-29]
rescue from ER stress-induced apoptosis [1]: inactive

COc1cc(/C=N\N(C)c2nc(-c3ccccc3)cc(-c3ccccc3)n2)cc(OC)c1O [MK-30]
rescue from ER stress-induced apoptosis [1]: inactive

Cc1ccccc1C(=O)N1CCc2cc(-c3nc(NC(=O)Cc4ccc5c(c4)OCO5)sc3C)ccc21 [ML385]
reversal of the cytoprotective effect of MK-28 ([16]; Tun + MK-28 + increasing ML385): did not reverse to any significant extent | toxicity (apoptosis) of ML385 ([16]; increasing concentrations): caused some toxicity

CCCCCCCCCCCCCCCCn1cc[n+](Cc2ccccc2)c1C [NH125]
IC50 [17]: 11000 nM

O=C1Nc2ccc3ncsc3c2/C1=C/c1cnc[nH]1 [PKR Inhibitor]
IC50 [18]: 14800 nM | IC50 [19]: 5690 nM

O=C(Nc1ccc2[nH]nc(-c3ccncc3)c2c1)[C@@H]1CCN(CC(=O)N2CCN(c3ccc(-c4ncccn4)cc3)CC2)C1 [SCH772984]
IC50 [20]: 12.6 nM

C/C=C(/C)C(=O)O[C@H]1C(C)=C2[C@H]([C@@H]1OC(=O)CCCCCCC)[C@@](C)(OC(C)=O)C[C@H](OC(=O)CCC)[C@@]1(O)[C@H]2OC(=O)[C@@]1(C)O [Thap, thapsigargin, reference compound]
PERK migration shift (PERK-P) [21]: shift of PERK consistent with its phosphorylation

O=C1NC(=O)c2c1c(-c1ccccc1Cl)cc1[nH]c3ccc(O)cc3c21 [Wee-1 Inhibitor]
IC50 [22]: 1910 nM

From PMC7181660, “A novel specific PERK activator reduces toxicity and extends survival in Huntington's disease models” (Scientific Reports, 2020)
